Assays:
MDA-MB-231 = experiment: Antiproliferative activity against human MDA-MB-231 cells assessed as cell growth inhibition measured after 72 hrs by MTT assay; format: functional, cell-based; conditions: MDA-MB-231, 72 h
DU-145 = experiment: Antiproliferative activity against human DU-145 cells assessed as cell growth inhibition measured after 72 hrs by MTT assay; format: functional, cell-based; conditions: DU-145, 72 h
SK-BR-3 = experiment: Antiproliferative activity against human SK-BR-3 cells assessed as cell growth inhibition measured after 72 hrs by MTT assay; format: functional, cell-based; conditions: SK-BR-3, 72 h
MCF7 = experiment: Antiproliferative activity against human MCF7 cells assessed as cell growth inhibition measured after 72 hrs by MTT assay; format: functional, cell-based; conditions: MCF7, 72 h
MCF-10A = experiment: Antiproliferative activity against human MCF-10A cells assessed as cell growth inhibition measured after 72 hrs by MTT assay; format: functional, cell-based
[1] = Cytotoxicity against human MT2 cells assessed as cell growth inhibition by MTT assay; format: toxicity, cell-based
[2] = tested on: Human immunodeficiency virus 1; experiment: Antiviral activity against wild type HIV1 IIIB assessed as viral growth inhibition measured after 5 days by MTT assay; format: functional, organism-based; conditions: Human immunodeficiency virus 1, IIIB, 120 h

| IC50 (MDA-MB-231) [nM] | IC50 (DU-145) [nM] | IC50 (SK-BR-3) [nM] | IC50 (MCF7) [nM] | SMILES | IC50 (MCF-10A) [nM] | IC50 [1] [nM] | IC50 [2] [nM] |
| --- | --- | --- | --- | --- | --- | --- | --- |
| 60 | 670 | 290 | > 20000 | CN(C)c1ccc(-c2nc(N)nc(Nc3ccccc3F)n2)cc1 | > 25000 | – | – |
| – | – | – | – | N#C/C=C/c1cccc(Oc2cc(Nc3nc(N)nc(C4CC4)n3)ccc2C#N)c1 | – | 1700 | 43 |

From ChEMBL document CHEMBL5214932, “A closer look at N2,6-substituted 1,3,5-triazine-2,4-diamines: Advances in synthesis and biological activities” (Eur J Med Chem, 2022)
